# Patent US20100184677A1, “USE OF THE HUMAN PANCREATIC POLYPEPTIDE AS A THERAPEUTIC AGENT” (priority 2007, published 2010)
# Test system: drug-resistant Mycobacterium tuberculosis
# Settings: peptide 10 micrograms per ml, seven days
smiles,measurement,value
CC[C@H](C)[C@H](NC(=O)[C@H](Cc1ccc(O)cc1)NC(=O)[C@H](CCCNC(=N)N)NC(=O)[C@H](CCCNC(=N)N)NC(=O)[C@H](CC(C)C)NC(=O)[C@H](CC(=O)O)NC(=O)[C@H](C)NC(=O)[C@H](C)NC(=O)[C@H](Cc1ccc(O)cc1)NC(=O)[C@H](CCC(N)=O)NC(=O)[C@H](C)NC(=O)[C@H](CCSC)NC(=O)[C@H](CCC(N)=O)NC(=O)[C@H](CCC(=O)O)NC(=O)[C@@H]1CCCN1C(=O)[C@@H](NC(=O)[C@H](C)NC(=O)[C@H](CC(N)=O)NC(=O)[C@H](CC(=O)O)NC(=O)CNC(=O)[C@@H]1CCCN1C(=O)[C@H](Cc1ccc(O)cc1)NC(=O)[C@@H](NC(=O)[C@@H]1CCCN1C(=O)[C@H](CCC(=O)O)NC(=O)[C@H](CC(C)C)NC(=O)[C@@H]1CCCN1C(=O)[C@H](C)N)C(C)C)[C@@H](C)O)C(=O)N[C@@H](CC(N)=O)C(=O)N[C@@H](CCSC)C(=O)N[C@@H](CC(C)C)C(=O)N[C@H](C(=O)N[C@@H](CCCNC(=N)N)C(=O)N1CCC[C@H]1C(=O)N[C@@H](CCCNC(=N)N)C(=O)N[C@@H](Cc1ccc(O)cc1)C(N)=O)[C@@H](C)O [Pancreatic polypeptide],% inhibition,0.0%
